The target of this experiment is human CCR6 (Homo sapiens (Human), UniProt P51684). In words: Calcium activity assay on the FLIPR Tetra in HEK-Gqi5 cells stably expressing human CCR6 (MIP3α as positive control agonist). The experiment is classed as cell-based. Here is the method: HEK-Gqi5 cells stably expressing human CCR6 were cultured in DMEM high glucose, 10% FBS, 1% PSA, 400 ug/ml geneticin and 50 ug/ml hygromycin. Appropriate positive control chemokine (MIP3α) was used as the positive control agonist for screening compound-induced calcium activity assayed on the FLIPR^Tetra. The drug plates were prepared in 384-well microplates using the EP3 and the MultiPROBE robotic liquid handling systems. Compounds disclosed herein were tested for CCR6 activity.
human CCR6, sequence (P51684 whole entry): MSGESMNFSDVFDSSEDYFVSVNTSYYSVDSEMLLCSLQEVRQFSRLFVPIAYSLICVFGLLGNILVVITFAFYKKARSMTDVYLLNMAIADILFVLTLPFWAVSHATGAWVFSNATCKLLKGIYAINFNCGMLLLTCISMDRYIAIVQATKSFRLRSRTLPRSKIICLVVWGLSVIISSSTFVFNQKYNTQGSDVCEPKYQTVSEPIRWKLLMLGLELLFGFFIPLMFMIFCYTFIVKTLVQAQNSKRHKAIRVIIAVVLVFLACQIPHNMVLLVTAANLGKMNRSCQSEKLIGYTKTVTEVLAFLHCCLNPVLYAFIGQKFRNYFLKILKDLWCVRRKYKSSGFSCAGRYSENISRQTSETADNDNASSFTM

A word on the IC50: it is the concentration needed to halve the response being measured. As to `CN1CCN(S(=O)(=O)c2c(Cl)ccc(Nc3c(NC4c5ccoc5CCC4(C)C)c(=O)c3=O)c2O)CC1` (stereo not shown) [Compound 49, 3-((4-chloro-2-hydroxy-3-((4-methylpiperazin-1-yl)sulfonyl)phenyl)amino)-4-((5,5-dimethyl-4,5,6,7-tetrahydrobenzofuran-4-yl)amino)cyclobut-3-ene-1,2-dione], the “CCR6 % Antagonism” value worked out at 98% and the IC50 is 31 nM.

As for `CCC(C)(Nc1c(Nc2ccc(Cl)c(C(=O)N(C)C)c2O)c(=O)c1=O)c1ccccc1` (stereo not shown) [Compound 72, 6-chloro-3-((3,4-dioxo-2-((2-phenylbutan-2-yl)amino)cyclobut-1-en-1-yl)amino)-2-hydroxy-N,N-dimethylbenzamide], the “CCR6 % Antagonism” value stood at 95% and the half-inhibitory concentration (IC50) was found to be 46 nM.

Source of the values: US11208377B2, “3,4-disubstituted 3-cyclobutene-1,2-diones and use thereof” (ALLERGAN, INC., priority 2017, dated 2021).
